Each structure is given as a SMILES string.

The target in the experiment is T1, Human MTHFD2 (Homo sapiens, UniProt P13995).
T1 construct: residues 36-350 in Uniport ID P13995; His6 (N); made in house; host or cells: E. coli
T1 sequence (P13995 36-350): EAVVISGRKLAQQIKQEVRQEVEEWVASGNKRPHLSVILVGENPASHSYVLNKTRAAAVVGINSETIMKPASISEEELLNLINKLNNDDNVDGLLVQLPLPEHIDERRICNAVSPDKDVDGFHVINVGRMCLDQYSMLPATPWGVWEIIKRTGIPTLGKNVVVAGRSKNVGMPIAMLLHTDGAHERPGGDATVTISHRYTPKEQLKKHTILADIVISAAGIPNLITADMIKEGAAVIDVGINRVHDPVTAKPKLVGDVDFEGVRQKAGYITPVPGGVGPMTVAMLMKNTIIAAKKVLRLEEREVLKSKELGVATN
Briefly: MTHFD2 Activity Assay (dehydrogenase activity, diaphorase/resazurin coupled fluorescence). Type of experiment: biochemical. To be noted: inhibitory activity (IC50 and/or binding constant); 0.2 nM MTHFD2, 11 concentrations. The procedure, abridged: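 Steps: compound + 0.2 nM enzyme, 15 min, pH 8.0 Hepes buffer; add 70 μM CH2-THF, 1 mM NAD+, 100 μM resazurin, diaphorase; 30 min; quench with EDTA; read fluorescence. Data normalized to DMSO (100%) and no-enzyme (0%) wells.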
For orientation: Alamar Blue is a resazurin reagent that responds to reducing activity.
`Cn1c(Nc2cccc([C@H]3C[C@@H]3CO)n2)nc2c1c(=O)n(Cc1cc3c(Cl)cccc3[nH]1)c(=O)n2C` (racemic) [Example 335, (±)-trans-1-((4-chloro-1H-indol-2-yl)methyl)-8-((6-(-2-(hydroxymethyl)cyclopropyl)pyridin-2-yl)amino)-3,7-dimethyl-1H-purine-2,6(3H,7H)-dione]: the IC50 (as a rule, the concentration at which inhibition is half-maximal) was 1 to 5 µM.
As to `Cc1ccc(Nc2nc3c(c(=O)n(Cc4cc5c(Cl)cccc5[nH]4)c(=O)n3C)n2C)cn1` [Example 383, 1-((4-chloro-1H-indol-2-yl)methyl)-3,7-dimethyl-8-(6-methylpyridin-3-ylamino)-1H-purine-2,6(3H,7H)-dione], the IC50 was 0.01 to 1 µM.
`Cn1c(N[C@@H]2CC[C@@H](O)C2)nc2c1c(=O)n(Cc1ccc(C#N)c(Cl)c1)c(=O)n2C` (racemic) [Example 247, (±)-2-chloro-4-((8-((trans)-3-hydroxycyclopentylamino)-3,7-dimethyl-2,6-dioxo-2,3,6,7-tetrahydro-1H-purin-1-yl)methyl)benzonitrile] had a half-inhibitory concentration (IC50) of 1 to 5 µM.
For `Cn1c(N[C@H]2CC[C@H](N)CC2)nc2c1c(=O)n(Cc1ccc(Cl)c(Cl)c1)c(=O)n2C` [Example 38, (±)-1-[(3,4-dichlorophenyl)methyl]-3,7-dimethyl-8-{[(trans)-4-aminocyclohexyl]amino}-2,3,6,7-tetrahydro-1H-purine-2,6-dione] the value was 1 to 5 µM; for `Cn1c(NCCCO)nc2c1c(=O)n(Cc1ccc3sccc3c1)c(=O)n2C` [Example 52, 1-(1-benzothiophen-5-ylmethyl)-8-[(3-hydroxypropyl)amino]-3,7-dimethyl-2,3,6,7-tetrahydro-1H-purine-2,6-dione], 0.01 to 1 µM.
As to `Cn1c(NC2CCCC(C(=O)O)C2)nc2c1c(=O)n(Cc1ccc(Cl)c(Cl)c1)c(=O)n2C` (racemic) [Example 114, (±)-3-(1-(3,4-dichlorobenzyl)-3,7-dimethyl-2,6-dioxo-2,3,6,7-tetrahydro-1H-purin-8-ylamino)cyclohexanecarboxylic acid], the concentration for half-maximal inhibition (IC50) lay within 0.01 to 1 µM.
Compound `Cc1ccc2c(c1)cc(Cn1c(=O)c3c(ncn3C)n(C)c1=O)n2C` [Example 233, 1-((1,5-dimethyl-1H-indol-2-yl)methyl)-3,7-dimethyl-1H-purine-2,6(3H,7H)-dione] gave an IC50 of 5 to 10 µM.
For `Cn1c(Nc2ccncc2)nc2c1c(=O)n(Cc1cc3c(C4CC4)cccc3[nH]1)c(=O)n2C` [Example 401, 1-((4-cyclopropyl-1H-indol-2-yl)methyl)-3,7-dimethyl-8-(pyridin-4-ylamino)-1H-purine-2,6(3H,7H)-dione] the value was 0.01 to 1 µM; for `Cn1c(N[C@H]2CC[C@@H](O)C2)nc2c1c(=O)n(Cc1ccc3cc[nH]c3c1)c(=O)n2C` (racemic) [Example 163, (±)-1-((1H-indol-6-yl)methyl)-8-((cis)-3-hydroxycyclopentylamino)-3,7-dimethyl-1H-purine-2,6(3H,7H)-dione], 1 to 5 µM.
For `Cn1c(C(N)C2CCOCC2)nc2c1c(=O)n(Cc1cc3c(Cl)cccc3[nH]1)c(=O)n2C` (stereo not shown) [Example 454, 8-[amino(tetrahydropyran-4-yl)methyl]-1-[(4-chloro-1H-indol-2-yl)methyl]-3,7-dimethyl-purine-2,6-dione] the value was 0.01 to 1 µM; for `Cn1c(Nc2cccc([C@H]3C[C@@H]3C(=O)O)n2)nc2c1c(=O)n(Cc1ccc(Cl)c(Cl)c1)c(=O)n2C` (racemic) [Example 299, (±)-trans-2-(6-((1-(3,4-dichlorobenzyl)-3,7-dimethyl-2,6-dioxo-2,3,6,7-tetrahydro-1H-purin-8-yl)amino)pyridin-2-yl)cyclopropanecarboxylic acid], 0.01 to 1 µM; for `Cc1ccc2[nH]c(Cn3c(=O)c4c(nc(-n5nccc5N)n4C)n(C)c3=O)cc2c1` [Example 218, 8-(5-amino-1H-pyrazol-1-yl)-3,7-dimethyl-1-((5-methyl-1H-indol-2-yl)methyl)-1H-purine-2,6(3H,7H)-dione], 0.01 to 1 µM.
For `Cn1c(Nc2ncn[nH]2)nc2c1c(=O)n(Cc1cc3ccccc3[nH]1)c(=O)n2C` [Example 195, 1-((1H-indol-2-yl)methyl)-8-(2H-1,2,4-triazol-3-ylamino)-3,7-dimethyl-1H-purine-2,6(3H,7H)-dione] the value was 1 to 5 µM.
The compound `Cn1cnc2c(=O)n(Cc3ccc(Cl)c(Cl)c3)c(=O)n(C)c21` [Example 253] registered a concentration for half-maximal inhibition (IC50) greater than 10 µM.
For the compound `Cn1c(Nc2ccnc(CCC(N)=O)c2)nc2c1c(=O)n(Cc1ccc(Cl)c(Cl)c1)c(=O)n2C` [Example 283, 3-(4-(1-(3,4-dichlorobenzyl)-3,7-dimethyl-2,6-dioxo-2,3,6,7-tetrahydro-1H-purin-8-ylamino)pyridin-2-yl)propanamide], the IC50 lay in the range of 0.01 to 1 µM.
With `Cn1c(Nc2ccc3c(c2)CC(CO)C3)nc2c1c(=O)n(Cc1ccc(Cl)c(Cl)c1)c(=O)n2C` (stereo not shown) [Example 324, 1-(3,4-dichlorobenzyl)-8-((2-(hydroxymethyl)-2,3-dihydro-1H-inden-5-yl)amino)-3,7-dimethyl-1H-purine-2,6(3H,7H)-dione], the IC50 is 1 to 5 µM.
For `Cn1c(NCC(=O)O)nc2c1c(=O)n(Cc1ccc(Cl)c(Cl)c1)c(=O)n2C` [Example 134, 2-(1-(3,4-dichlorobenzyl)-3,7-dimethyl-2,6-dioxo-2,3,6,7-tetrahydro-1H-purin-8-ylamino)acetic acid] the value was 1 to 5 µM.
For `Cn1c(N[C@H]2CCC[C@@H](O)C2)nc2c1c(=O)n(Cc1ccc(Cl)c(Cl)c1)c(=O)n2C` (single isomer, unassigned) [Example 79, 1-(3,4-dichlorobenzyl)-8-((1S,3R)-3-hydroxycyclohexylamino)-3,7-dimethyl-1H-purine-2,6(3H,7H)-dione or 1-(3,4-dichlorobenzyl)-8-((1R,3S)-3-hydroxycyclohexylamino)-3,7-dimethyl-1H-purine-2,6(3H,7H)-dione] the value was 0.01 to 1 µM.
For `Cn1c(NCC2(O)CCCCC2)nc2c1c(=O)n(Cc1ccc(Cl)c(Cl)c1)c(=O)n2C` [Example 106, 1-(3,4-dichlorobenzyl)-8-((1-hydroxycyclohexyl)methylamino)-3,7-dimethyl-1H-purine-2,6(3H,7H)-dione] the value was 1 to 5 µM; for `C/C(=N\O)c1nc2c(c(=O)n(Cc3cc4c(Cl)cccc4[nH]3)c(=O)n2C)n1C` [Example 478, (E)-1-((4-chloro-1H-indol-2-yl)methyl)-8-(1-(hydroxyimino)ethyl)-3,7-dimethyl-1H-purine-2,6(3H,7H)-dione or (Z)-1-((4-chloro-1H-indol-2-yl)methyl)-8-(1-(hydroxyimino)ethyl)-3,7-dimethyl-1H-purine-2,6(3H,7H)-dione], 0.01 to 1 µM.
In turn, `Cn1c(C(N)c2cccnc2)nc2c1c(=O)n(Cc1cc3c(Cl)cccc3[nH]1)c(=O)n2C` (stereo not shown) [Example 445, 8-[amino(3-pyridyl)methyl]-1-[(4-chloro-1H-indol-2-yl)methyl]-3,7-dimethyl-purine-2,6-dione] displayed an IC50 of 0.01 to 1 µM.
Compound `Cn1c(Nc2ccnc(C(F)(F)F)c2)nc2c1c(=O)n(Cc1cc3c(Cl)cccc3[nH]1)c(=O)n2C` [Example 334, 1-[(4-chloro-1H-indol-2-yl)methyl]-8-[(2-trifluoromethyl-4-pyridyl)amino]-3,7-dimethyl-purine-2,6-dione] registered a 50% inhibitory concentration (IC50) of 1 to 5 µM.
For `Cn1c(Nc2ccc(C#N)nc2)nc2c1c(=O)n(Cc1cc3c(Cl)cccc3[nH]1)c(=O)n2C` [Example 427, 5-(1-((4-chloro-1H-indol-2-yl)methyl)-3,7-dimethyl-2,6-dioxo-2,3,6,7-tetrahydro-1H-purin-8-ylamino)picolinonitrile], the IC50 lay in the range of 0.01 to 1 µM.
For `Cn1c(Nc2ccncc2)nc2c1c(=O)n(Cc1ccc3ccccc3c1)c(=O)n2C` [Example 349, 3,7-dimethyl-1-(naphthalen-2-ylmethyl)-8-(pyridin-4-ylamino)-1H-purine-2,6(3H,7H)-dione] the value was 0.01 to 1 µM.
For `Cc1ccc2[nH]c(Cn3c(=O)c4c(nc(N[C@H]5CC[C@@H](O)C5)n4C)n(C)c3=O)cc2c1` (racemic) [Example 177, (±)-8-((cis)-3-hydroxycyclopentylamino)-3,7-dimethyl-1-((5-methyl-1H-indol-2-yl)methyl)-1H-purine-2,6(3H,7H)-dione] the value was 0.01 to 1 µM; for `Cn1c(N[C@@H]2CC[C@@H](O)C2)nc2c1c(=O)n(Cc1ccc(C(F)(F)F)cc1)c(=O)n2C` (single isomer, unassigned) [Example 144, 8-((1R,3R)-3-hydroxycyclopentylamino)-3,7-dimethyl-1-(4-(trifluoromethyl)benzyl)-1H-purine-2,6(3H,7H)-dione or 8-((1S,3S)-3-hydroxycyclopentylamino)-3,7-dimethyl-1-(4-(trifluoromethyl)benzyl)-1H-purine-2,6(3H,7H)-dione], 1 to 5 µM; for `Cn1c(-n2ncnc2N)nc2c1c(=O)n(Cc1ccc(Cl)c(Cl)c1)c(=O)n2C` [Example 143, 8-(5-amino-1H-1,2,4-triazol-1-yl)-1-(3,4-dichlorobenzyl)-3,7-dimethyl-1H-purine-2,6(3H,7H)-dione], 1 to 5 µM.
In the case of `Cn1c(Nc2cc[nH]c(=O)n2)nc2c1c(=O)n(Cc1cc3cc(Cl)ccc3[nH]1)c(=O)n2C` [Example 206, 1-((5-chloro-1H-indol-2-yl)methyl)-3,7-dimethyl-8-(2-oxo-1,2-dihydropyrimidin-4-ylamino)-1H-purine-2,6(3H,7H)-dione], the IC50 was in the range of 0.01 to 1 µM.

The record behind these values is patent US12187728B2 (Raze Therapeutics, Inc., priority 2015, dated 2025).
